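48-hour exposure; five concentrations; linearly interpolated endpoints. TGI denotes the concentration required for complete inhibition of growth.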
Test system: SN12K1 renal
Experiment: NCI tumour cell line growth inhibition, 48 h

CN(N=O)C(=O)N[C@@H](C=O)[C@@H](O)[C@H](O)[C@H](O)CO
TGI: 546 µM
